Values after ≈ are worked out from the molar mass of the structure shown.
What was measured:
Type in all cases: cell-based
[1] = test system: P-388 (suspension culture of a lymphoid neoplasm from DBA/2 mouse); assay: Cytotoxic activity screening, P-388 cells; details: Mus musculus, P388, 72 h, three days of incubation, approximate IC50 vs control growth
Method: (§1) Cell Cultures. Cells were maintained in logarithmic phase of growth in Eagle's Minimum Essential Medium, with Earle's Balanced Salts, with 2.0 mM L-glutamine, with non-essential amino acids, without sodium bicarbonate (EMEM/neaa); supplemented with 10% Fetal Calf Serum (FCS), 10^−2 M sodium bicarbonate and 0.1 g/l penicillin-G+streptomycin sulfate.
(§2) A simple screening procedure has been carried out to determine and compare the antitumour activity of these compounds, using an adapted form of the method described by Bergeron et al (1984). The tumour cell line employed have been P-388 (suspension culture of a lymphoid neoplasm from DBA/2 mouse), A-549 (monolayer culture of a human lung carcinoma), HT-29 (monolayer culture of a human colon carcinoma) and MEL-28 (monolayer culture of a human melanoma).
P-388 cell were seeded into 16 mm wells at 1×10^4 cells per well in 1 ml aliquots of MEM 5FCS containing the indicated concentration of drug. A separate set of cultures without drug was seeded as control growth to ensure that cells remained in exponential phase of growth. All determinations were carried out in duplicate.

DU-145 = assay: Cytotoxic activity screening, DU-145 cells; details: Homo sapiens, DU-145, DU-145 cells
Method: [The source words this procedure for another cell line and reports this cell line under the same test.] as §1, §2
Examples of biological activities of the compounds described in the present application are in Table IV (IC50 (ng/mL)) on the following pages.

[2] = test system: HT-29 (monolayer culture of a human colon carcinoma); assay: Cytotoxic activity screening, HT-29 cells; details: Homo sapiens, HT-29, 72 h, three days of incubation, Crystal Violet, approximate IC50
Method: as §1
(§3) A separate set of cultures without drug was seeded as control growth to ensure that cells remained in exponential phase of growth. All determinations were carried out in duplicate. After three days of incubation at 37° C., 10% CO2 in a 98% humid atmosphere, the wells were stained with 0.1% Crystal Violet. An approximately IC50 was determined by comparing the growth in wells with drug to the growth in wells control.

[3] = test system: A-549 (monolayer culture of a human lung carcinoma); assay: Cytotoxic activity screening, A-549 cells; details: Homo sapiens, A549, 72 h, three days of incubation, Crystal Violet, approximate IC50
Method: as §1, §3

[4] = test system: MEL-28 (monolayer culture of a human melanoma); assay: Cytotoxic activity screening, MEL-28 cells; details: Homo sapiens, SK-MEL-28, 72 h, three days of incubation, Crystal Violet, approximate IC50
Method: as §1, §2
as §3, with “A-549, HT-29 and MEL-28 were seeded into 16 mm wells at 2×10^4 cells per well in 1 ml aliquots of MEM 10FCS containing the indicated concentration of drug. A separate” for “A separate”

Compound	IC50 [1] [ng/mL]	IC50 (DU-145) [ng/mL]	IC50 [2] [ng/mL]	IC50 [3] [ng/mL]	IC50 [4] [ng/mL]
COc1c(C)cc2c(c1O)[C@@H]1C3[C@@H]4SC[C@H](NC(=O)c5ccccc5)C(=O)OC[C@@H](c5c6c(c(C)c(OC(C)=O)c54)OCO6)N3[C@@H](O)[C@H](C2)N1C (stereo partly drawn) [Compound 4g]	0.1 (≈ 0.139 nM)	0.5 (≈ 0.697 nM)	0.5 (≈ 0.697 nM)	0.5 (≈ 0.697 nM)	0.5 (≈ 0.697 nM)
COc1c(C)cc2c(c1O)[C@@H]1C3[C@@H]4SC[C@H](NC(=O)/C=C/c5ccc(C(F)(F)F)cc5)C(=O)OC[C@@H](c5c6c(c(C)c(OC(C)=O)c54)OCO6)N3[C@@H](O)[C@H](C2)N1C (stereo partly drawn) [Compound 4i]	1 (≈ 1.23 nM)	1 (≈ 1.23 nM)	1 (≈ 1.23 nM)	1 (≈ 1.23 nM)	1 (≈ 1.23 nM)
COc1c(C)cc2c(c1O)[C@@H]1C3[C@@H]4SC[C@H](NC(=O)CCCCC5SCC6NC(=O)NC65)C(=O)OC[C@@H](c5c6c(c(C)c(OC(C)=O)c54)OCO6)N3[C@@H](O)[C@H](C2)N1C (stereo partly drawn) [Compound 4k]	10 (≈ 11.9 nM)	10 (≈ 11.9 nM)	10 (≈ 11.9 nM)	10 (≈ 11.9 nM)	10 (≈ 11.9 nM)
COc1c(C)cc2c(c1O)[C@@H]1C3[C@@H]4SC[C@H](NC(=O)CCC(=O)O)C(=O)OC[C@@H](c5c6c(c(C)c(OC(C)=O)c54)OCO6)N3[C@@H](O)[C@H](C2)N1C (stereo partly drawn) [Compound 4l]	100 (≈ 140 nM)	100 (≈ 140 nM)	100 (≈ 140 nM)	100 (≈ 140 nM)	100 (≈ 140 nM)
COc1c(C)cc2c(c1O)[C@@H]1C3[C@@H]4SCC(NCc5ccccc5)C(=O)OC[C@@H](c5c6c(c(C)c(OC(C)=O)c54)OCO6)N3[C@@H](O)[C@H](C2)N1C (stereo partly drawn) [Compound 4n]	0.5 (≈ 0.71 nM)	0.5 (≈ 0.71 nM)	0.5 (≈ 0.71 nM)	0.5 (≈ 0.71 nM)	0.5 (≈ 0.71 nM)
COc1c(C)cc2c(c1O)[C@@H]1C3[C@@H]4SCC(NC(=O)C(N)C(C)C)C(=O)OC[C@@H](c5c6c(c(C)c(OC(C)=O)c54)OCO6)N3[C@@H](O)[C@H](C2)N1C (stereo partly drawn) [Compound 4p]	0.5 (≈ 0.701 nM)	0.5 (≈ 0.701 nM)	0.5 (≈ 0.701 nM)	0.5 (≈ 0.701 nM)	0.5 (≈ 0.701 nM)
COc1c(C)cc2c(c1O)[C@@H]1C3[C@@H]4SC[C@H](NC(=O)C(NC(C)=O)C(C)C)C(=O)OC[C@@H](c5c6c(c(C)c(OC(C)=O)c54)OCO6)N3[C@@H](O)[C@H](C2)N1C (stereo partly drawn) [Compound 4q]	1 (≈ 1.32 nM)	1 (≈ 1.32 nM)	1 (≈ 1.32 nM)	1 (≈ 1.32 nM)	1 (≈ 1.32 nM)
COc1c(C)cc2c(c1O)[C@@H]1C3[C@@H]4SC[C@H](NC(=O)C(NC(=O)/C=C/c5ccccc5)C(C)C)C(=O)OC[C@@H](c5c6c(c(C)c(OC(C)=O)c54)OCO6)N3[C@@H](O)[C@H](C2)N1C (stereo partly drawn) [Compound 4r]	0.5 (≈ 0.593 nM)	0.5 (≈ 0.593 nM)	0.5 (≈ 0.593 nM)	0.5 (≈ 0.593 nM)	0.5 (≈ 0.593 nM)
COc1c(C)cc2c(c1O)[C@@H]1C3[C@@H]4SC[C@H](NC(=O)C(NC(=O)C(C)N)C(C)C)C(=O)OC[C@@H](c5c6c(c(C)c(OC(C)=O)c54)OCO6)N3[C@@H](O)[C@H](C2)N1C (stereo partly drawn) [Compound 4s]	1 (≈ 1.28 nM)	1 (≈ 1.28 nM)	1 (≈ 1.28 nM)	1 (≈ 1.28 nM)	1 (≈ 1.28 nM)
COc1c(C)cc2c(c1O)[C@@H]1C3[C@@H]4SC[C@H](NC(=O)C(NC(=O)C(C)NC(C)=O)C(C)C)C(=O)OC[C@@H](c5c6c(c(C)c(OC(C)=O)c54)OCO6)N3[C@@H](O)[C@H](C2)N1C (stereo partly drawn) [Compound 4t]	100 (≈ 121 nM)	10 (≈ 12.1 nM)	10 (≈ 12.1 nM)	100 (≈ 121 nM)	10 (≈ 12.1 nM)
COc1c(C)cc2c(c1O)[C@@H]1C3[C@@H]4SC[C@H](NC(=O)C(NC(=O)C(C)NC(=O)/C=C/c5ccccc5)C(C)C)C(=O)OC[C@@H](c5c6c(c(C)c(OC(C)=O)c54)OCO6)N3[C@@H](O)[C@H](C2)N1C (stereo partly drawn) [Compound 4u]	5 (≈ 5.47 nM)	5 (≈ 5.47 nM)	5 (≈ 5.47 nM)	5 (≈ 5.47 nM)	5 (≈ 5.47 nM)
COc1c(C)cc2c(c1O)[C@@H]1C3[C@@H]4SC[C@H](NC(=O)C(C)N)C(=O)OC[C@@H](c5c6c(c(C)c(OC(C)=O)c54)OCO6)N3[C@@H](O)[C@H](C2)N1C (stereo partly drawn) [Compound 4v]	1 (≈ 1.46 nM)	1 (≈ 1.46 nM)	1 (≈ 1.46 nM)	1 (≈ 1.46 nM)	1 (≈ 1.46 nM)

— patent publication US7919493B2, “Anititumoral ecteinascidin derivatives” (Pharma Mar, S.A., priority 2001, dated 2011)
